Assay results taken from US9040252B2, “Method for increasing and regulating light emission from a chemiluminescent reaction” (Cyanagen S.R.L., priority 2010, dated 2015).

Target: T1, horseradish peroxidase (HRP-type VIA) (Armoracia rusticana, UniProt P00433)
T1 construct: purchased Sigma-Aldrich
T1 sequence (P00433 31-338 limits assumed): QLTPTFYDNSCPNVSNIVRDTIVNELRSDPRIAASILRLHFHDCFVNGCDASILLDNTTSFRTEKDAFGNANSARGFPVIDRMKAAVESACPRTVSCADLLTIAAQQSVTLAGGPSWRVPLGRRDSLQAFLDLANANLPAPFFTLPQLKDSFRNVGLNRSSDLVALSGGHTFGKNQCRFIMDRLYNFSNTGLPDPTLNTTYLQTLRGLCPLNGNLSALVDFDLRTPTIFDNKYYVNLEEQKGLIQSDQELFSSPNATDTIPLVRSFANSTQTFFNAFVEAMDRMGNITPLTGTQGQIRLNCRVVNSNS
Test: Dependence of the enhanced luminol-peroxide-peroxidase chemiluminescent reaction on secondary enhancer concentration
Format: biochemical
Conditions: pH 9.00 Tris buffer; initial light output, FIG. 4
Protocol: All measurements reported in Examples were carried out with a Varian Eclipse spectrofluorimeter and the following settings: bio/chemiluminescence mode; emission wavelength: 425 nm; emission slit: 20 nm; Photomultiplier Detection Voltage: medium.
A series of chemiluminescent substrates in 0.15 M, pH 9.00+−0.05 Tris buffer, is prepared, with the following compositions:
[luminol sodium salt]=5 mM
[sodium 3-(phenothiazin-10-yl)propane-1-sulfonate]=3 mM secondary enhancer=MORP, imidazole, 1-methylimidazole, 1,2,3-triazole, 1,2,4-triazole at the following concentrations:
A series of disposable polymethylmethacrylate cuvettes is prepared, each containing 2 mL of substrate solution. To each cuvette are added 10 μL of a 2 μg/mL horseradish peroxidase solution (HRP-type VIA) solution and simultaneously a 30 seconds countdown is started. The cuvette is closed with a square piece of parafilm and vortexed for 3 seconds. The cuvette is then inserted into the spectrofluorimeter. At the end of the 30 seconds countdown measurement of the luminescent signal is initiated and recorded for a 900 sec period. In all cases the signal reaches a plateau level within 30 seconds after the addition of the peroxidase, and then begins to slowly decrease. Initial, plateau levels are plotted vs. secondary enhancer concentration, FIG. 4. As it can be seen, the effect of MORP on signal intensity is quite strong even at very low concentrations. Signal output reaches a sharp maximum at about 1.5 mM of MORP and then falls abruptly. In contrast, N-azoles exert a much more gradual effect on signal intensity, reaching a plateau at much higher concentration levels. Thus, they afford a considerable degree of regulation of the chemiluminescent light output, which cannot be obtained with dialkylaminopyridine secondary enhancers such as MORP.

Row | Compound | behaviour of enhancement effect with increasing secondary enhancer concentration
1 | c1c[nH]nn1 [1,2,3-triazole] | tend to reach a plateau
2 | c1nc[nH]n1 [1,2,4-triazole] | tend to reach a plateau
3 | Cn1ccnc1 [1-methylimidazole] | tend to reach a plateau
4 | c1cc(N2CCOCC2)ccn1 [MORP, 4-morpholinopyridine, reference compound] | sharply decreases its enhancement effect with a further increase in concentration
5 | c1c[nH]cn1 [imidazole] | begin to slowly decrease their action at very high concentration
